Experimental data taken from PMC3443622 (2012).

Legend:
ABCG2 [1] = molecular target: T1, ABCG2 (Homo sapiens, UniProt Q9UNQ0); assay type: cell-based
T1 sequence (Q9UNQ0 1-655): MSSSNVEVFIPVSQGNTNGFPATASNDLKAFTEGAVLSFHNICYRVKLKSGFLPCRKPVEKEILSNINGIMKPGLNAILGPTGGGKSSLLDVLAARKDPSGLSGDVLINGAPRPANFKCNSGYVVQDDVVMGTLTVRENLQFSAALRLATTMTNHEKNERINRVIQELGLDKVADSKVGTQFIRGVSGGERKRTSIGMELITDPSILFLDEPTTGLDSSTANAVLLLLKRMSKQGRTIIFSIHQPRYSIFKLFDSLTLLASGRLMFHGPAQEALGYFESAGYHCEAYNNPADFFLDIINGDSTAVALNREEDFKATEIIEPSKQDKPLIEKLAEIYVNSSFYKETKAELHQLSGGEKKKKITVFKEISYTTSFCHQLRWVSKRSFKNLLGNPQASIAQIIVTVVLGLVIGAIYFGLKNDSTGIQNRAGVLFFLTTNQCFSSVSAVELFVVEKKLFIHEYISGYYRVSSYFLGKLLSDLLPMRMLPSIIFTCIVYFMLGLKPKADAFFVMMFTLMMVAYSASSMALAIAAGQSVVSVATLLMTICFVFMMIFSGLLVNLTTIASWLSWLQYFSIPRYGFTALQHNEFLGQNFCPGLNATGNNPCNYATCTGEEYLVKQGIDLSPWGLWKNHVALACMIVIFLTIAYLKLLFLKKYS

ABCG2 [2] = molecular target: T1, ABCG2; test: intracellular accumulation in ABCG2-transfected HEK293 cells; assay type: cell-based

Row | Structure (SMILES) | ATP-dependent uptake into membrane vesicles (ABCG2 [1]) | intracellular accumulation in ABCG2-transfected HEK293 cells (ABCG2 [2])
1 | CN(Cc1cnc2nc(N)nc(N)c2n1)c1ccc(C(=O)N[C@@H](CCC(=O)O)C(=O)O)cc1 [[3H]-methotrexate] | using membrane vesicles to determine the rate of ATP-dependent uptake of [^3H]-methotrexate, another substrate of ABCG2 | –
2 | O=C1c2c(O)ccc(O)c2C(=O)c2c(NCCNCCO)ccc(NCCNCCO)c21 [[3H]-mitoxantrone] | – | the intracellular levels of [^3H]-mitoxantrone, a known substrate of ABCG2 was measured in the presence or absence of VKJP1 or VKJP3
